The record followed here is ChEMBL document CHEMBL1201861, “Genomics of Drug Sensitity in Cancer screening data, Wellcome Trust Sanger Institute”.

SMILES strings stand for the structures.

The subject of one assay is NCI-H661. Nature of the assay: cells. It is filed as functional, cell-based. The settings on record: Homo sapiens.
Description: SANGER: Inhibition of human NCI-H661 cell growth in a cell viability assay.
As to `CC1(C)CCC(c2ccc(Cl)cc2)=C(CN2CCN(c3ccc(C(=O)NS(=O)(=O)c4ccc(N[C@H](CCN5CCOCC5)CSc5ccccc5)c(S(=O)(=O)C(F)(F)F)c4)cc3)CC2)C1` [NAVITOCLAX], the IC50 was > 2 µM.

The test system of another assay is CAL-54. The assay is described as follows: cells. It is filed as functional, cell-based. The settings on record: Homo sapiens.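 Also: growth inhibition of CAL-54 cells, read out by a viability measurement.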
Description: SANGER: Inhibition of human CAL-54 cell growth in a cell viability assay.
For the compound `CC1(C)CCC(c2ccc(Cl)cc2)=C(CN2CCN(c3ccc(C(=O)NS(=O)(=O)c4ccc(N[C@H](CCN5CCOCC5)CSc5ccccc5)c(S(=O)(=O)C(F)(F)F)c4)cc3)CC2)C1` [NAVITOCLAX], the IC50 was > 2 µM.

The next assay concerns C-33-A. The assay is described as follows: cells. The note with it: Homo sapiens. Format: functional, cell-based.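 Also: cell viability assay measuring growth inhibition of C-33-A cells.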
Description: SANGER: Inhibition of human C-33-A cell growth in a cell viability assay.
As to `CC1(C)CCC(c2ccc(Cl)cc2)=C(CN2CCN(c3ccc(C(=O)NS(=O)(=O)c4ccc(N[C@H](CCN5CCOCC5)CSc5ccccc5)c(S(=O)(=O)C(F)(F)F)c4)cc3)CC2)C1` [NAVITOCLAX], the IC50 is > 2 µM.

Another assay deals with JEG-3. Nature of the assay: cells. It is filed as functional, cell-based. The settings on record: Homo sapiens.
Description: SANGER: Inhibition of human JEG-3 cell growth in a cell viability assay.
Consider `CC1(C)CCC(c2ccc(Cl)cc2)=C(CN2CCN(c3ccc(C(=O)NS(=O)(=O)c4ccc(N[C@H](CCN5CCOCC5)CSc5ccccc5)c(S(=O)(=O)C(F)(F)F)c4)cc3)CC2)C1` [NAVITOCLAX], for which the half-maximal inhibitory concentration (IC50) was > 2 µM.

In a further assay the test system is DMS-273. The assay is described as follows: cells. Format: functional, cell-based. The settings on record: Homo sapiens.
Description: SANGER: Inhibition of human DMS-273 cell growth in a cell viability assay.
As to `CC1(C)CCC(c2ccc(Cl)cc2)=C(CN2CCN(c3ccc(C(=O)NS(=O)(=O)c4ccc(N[C@H](CCN5CCOCC5)CSc5ccccc5)c(S(=O)(=O)C(F)(F)F)c4)cc3)CC2)C1` [NAVITOCLAX], the IC50 was > 2 µM.

A further assay concerns CAL-51. The assay is described as follows: cells. The note with it: Homo sapiens. It is filed as functional, cell-based.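 Also: human CAL-51 cell line, growth inhibition read out via a cell viability assay.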
Description: SANGER: Inhibition of human CAL-51 cell growth in a cell viability assay.
Turning to `CC1(C)CCC(c2ccc(Cl)cc2)=C(CN2CCN(c3ccc(C(=O)NS(=O)(=O)c4ccc(N[C@H](CCN5CCOCC5)CSc5ccccc5)c(S(=O)(=O)C(F)(F)F)c4)cc3)CC2)C1` [NAVITOCLAX], the IC50 was > 2 µM.

A further assay relates to NCI-H2122. The assay is described as follows: cells. Format: functional, cell-based. The settings on record: Homo sapiens.
Description: SANGER: Inhibition of human NCI-H2122 cell growth in a cell viability assay.
Regarding `CC1(C)CCC(c2ccc(Cl)cc2)=C(CN2CCN(c3ccc(C(=O)NS(=O)(=O)c4ccc(N[C@H](CCN5CCOCC5)CSc5ccccc5)c(S(=O)(=O)C(F)(F)F)c4)cc3)CC2)C1` [NAVITOCLAX], the IC50 was > 2 µM.

Another assay relates to ME-180. Nature of the assay: cells. Format: functional, cell-based. The note with it: Homo sapiens.
Description: SANGER: Inhibition of human ME-180 cell growth in a cell viability assay.
For `CC1(C)CCC(c2ccc(Cl)cc2)=C(CN2CCN(c3ccc(C(=O)NS(=O)(=O)c4ccc(N[C@H](CCN5CCOCC5)CSc5ccccc5)c(S(=O)(=O)C(F)(F)F)c4)cc3)CC2)C1` [NAVITOCLAX], the IC50 was > 2 µM.

The next assay concerns HCC 2998. The assay is described as follows: cells. Format: functional, cell-based. The settings on record: Homo sapiens.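 Also: growth inhibition of human HCC2998 cells, measured with a cell viability read-out.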
Description: SANGER: Inhibition of human HCC2998 cell growth in a cell viability assay.
The compound `CC1(C)CCC(c2ccc(Cl)cc2)=C(CN2CCN(c3ccc(C(=O)NS(=O)(=O)c4ccc(N[C@H](CCN5CCOCC5)CSc5ccccc5)c(S(=O)(=O)C(F)(F)F)c4)cc3)CC2)C1` [NAVITOCLAX] registered a half-maximal inhibitory concentration (IC50) of 1.07 µM.

The test system of the next assay is A2780. The assay is described as follows: cells. The settings on record: Homo sapiens. It is filed as functional, cell-based.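 Also: growth inhibition of A2780 cells, read out with a cell viability assay.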
Description: SANGER: Inhibition of human A2780 cell growth in a cell viability assay.
Consider `CC1(C)CCC(c2ccc(Cl)cc2)=C(CN2CCN(c3ccc(C(=O)NS(=O)(=O)c4ccc(N[C@H](CCN5CCOCC5)CSc5ccccc5)c(S(=O)(=O)C(F)(F)F)c4)cc3)CC2)C1` [NAVITOCLAX], for which the IC50 is > 2 µM.

For the next assay, the system named is HSC-2. Nature of the assay: cells. Format: functional, cell-based. The settings on record: Homo sapiens.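 Also: growth inhibition of human HSC-2 cells, read out by a cell viability assay.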
Description: SANGER: Inhibition of human HSC-2 cell growth in a cell viability assay.
Regarding `CC1(C)CCC(c2ccc(Cl)cc2)=C(CN2CCN(c3ccc(C(=O)NS(=O)(=O)c4ccc(N[C@H](CCN5CCOCC5)CSc5ccccc5)c(S(=O)(=O)C(F)(F)F)c4)cc3)CC2)C1` [NAVITOCLAX], the IC50 was > 2 µM.

The next assay has as its system SW1573. Nature of the assay: cells. The note with it: Homo sapiens. Format: functional, cell-based.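 Also: growth inhibition of SW1573 cells, read out with a cell viability assay.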
Description: SANGER: Inhibition of human SW1573 cell growth in a cell viability assay.
On to `CC1(C)CCC(c2ccc(Cl)cc2)=C(CN2CCN(c3ccc(C(=O)NS(=O)(=O)c4ccc(N[C@H](CCN5CCOCC5)CSc5ccccc5)c(S(=O)(=O)C(F)(F)F)c4)cc3)CC2)C1` [NAVITOCLAX], for which the IC50 was > 2 µM.

A further assay has as its system ABC-1. Nature of the assay: cells. The settings on record: Homo sapiens. Format: functional, cell-based.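 Also: growth inhibition of human ABC-1 cells, read out by a cell viability assay.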
Description: SANGER: Inhibition of human ABC-1 cell growth in a cell viability assay.
Regarding `CC1(C)CCC(c2ccc(Cl)cc2)=C(CN2CCN(c3ccc(C(=O)NS(=O)(=O)c4ccc(N[C@H](CCN5CCOCC5)CSc5ccccc5)c(S(=O)(=O)C(F)(F)F)c4)cc3)CC2)C1` [NAVITOCLAX], the IC50 is > 2 µM.

For another assay, the system named is GCT. The assay is described as follows: cells. It is filed as functional, cell-based. The settings on record: Homo sapiens.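 Also: GCT cell line proliferation inhibition, read out with a cell viability assay.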
Description: SANGER: Inhibition of human GCT cell growth in a cell viability assay.
Take `CC1(C)CCC(c2ccc(Cl)cc2)=C(CN2CCN(c3ccc(C(=O)NS(=O)(=O)c4ccc(N[C@H](CCN5CCOCC5)CSc5ccccc5)c(S(=O)(=O)C(F)(F)F)c4)cc3)CC2)C1` [NAVITOCLAX]: the IC50 was > 2 µM.

The next assay relates to FTC-133. Nature of the assay: cells. It is filed as functional, cell-based. The settings on record: Homo sapiens.
As for `CC1(C)CCC(c2ccc(Cl)cc2)=C(CN2CCN(c3ccc(C(=O)NS(=O)(=O)c4ccc(N[C@H](CCN5CCOCC5)CSc5ccccc5)c(S(=O)(=O)C(F)(F)F)c4)cc3)CC2)C1` [NAVITOCLAX], the concentration for half-maximal inhibition (IC50) was > 2 µM.

In another assay the test system is A673. The assay is described as follows: cells. The note with it: Homo sapiens. Format: functional, cell-based.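 Also: growth inhibition of human A673 cells, read out through a cell viability assay.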
Description: SANGER: Inhibition of human A673 cell growth in a cell viability assay.
With `CC1(C)CCC(c2ccc(Cl)cc2)=C(CN2CCN(c3ccc(C(=O)NS(=O)(=O)c4ccc(N[C@H](CCN5CCOCC5)CSc5ccccc5)c(S(=O)(=O)C(F)(F)F)c4)cc3)CC2)C1` [NAVITOCLAX], the half-inhibitory concentration (IC50) is > 2 µM.

For a further assay, the system named is NCI-H1651. The assay is described as follows: cells. The note with it: Homo sapiens. Format: functional, cell-based.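 Also: Read-out is a cell viability assay, with IC50 expressing inhibition of NCI-H1651 cell growth.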
Description: SANGER: Inhibition of human NCI-H1651 cell growth in a cell viability assay.
With `CC1(C)CCC(c2ccc(Cl)cc2)=C(CN2CCN(c3ccc(C(=O)NS(=O)(=O)c4ccc(N[C@H](CCN5CCOCC5)CSc5ccccc5)c(S(=O)(=O)C(F)(F)F)c4)cc3)CC2)C1` [NAVITOCLAX], the half-maximal inhibitory concentration (IC50) is > 2 µM.

The subject of another assay is MKN-7. The assay is described as follows: cells. The note with it: Homo sapiens. It is filed as functional, cell-based.
Description: SANGER: Inhibition of human MKN7 cell growth in a cell viability assay.
On to `CC1(C)CCC(c2ccc(Cl)cc2)=C(CN2CCN(c3ccc(C(=O)NS(=O)(=O)c4ccc(N[C@H](CCN5CCOCC5)CSc5ccccc5)c(S(=O)(=O)C(F)(F)F)c4)cc3)CC2)C1` [NAVITOCLAX], for which the 50% inhibitory concentration (IC50) is > 2 µM.

The test system of another assay is SW1783. The assay is described as follows: cells. It is filed as functional, cell-based. The note with it: Homo sapiens.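 Also: cell growth inhibition measured with a viability assay.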
Description: SANGER: Inhibition of human SW1783 cell growth in a cell viability assay.
For `CC1(C)CCC(c2ccc(Cl)cc2)=C(CN2CCN(c3ccc(C(=O)NS(=O)(=O)c4ccc(N[C@H](CCN5CCOCC5)CSc5ccccc5)c(S(=O)(=O)C(F)(F)F)c4)cc3)CC2)C1` [NAVITOCLAX], the IC50 is > 2 µM.

In another assay the test system is 786-0. Nature of the assay: cells. It is filed as functional, cell-based. The settings on record: Homo sapiens.
Description: SANGER: Inhibition of human 786-0 cell growth in a cell viability assay.
Take `CC1(C)CCC(c2ccc(Cl)cc2)=C(CN2CCN(c3ccc(C(=O)NS(=O)(=O)c4ccc(N[C@H](CCN5CCOCC5)CSc5ccccc5)c(S(=O)(=O)C(F)(F)F)c4)cc3)CC2)C1` [NAVITOCLAX]: the IC50 was > 2 µM.

For the next assay, the system named is CAL-33. The assay is described as follows: cells. It is filed as functional, cell-based. The settings on record: Homo sapiens.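 Also: growth inhibition of CAL-33 cells, read out with a cell viability assay.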
Description: SANGER: Inhibition of human CAL-33 cell growth in a cell viability assay.
Turning to `CC1(C)CCC(c2ccc(Cl)cc2)=C(CN2CCN(c3ccc(C(=O)NS(=O)(=O)c4ccc(N[C@H](CCN5CCOCC5)CSc5ccccc5)c(S(=O)(=O)C(F)(F)F)c4)cc3)CC2)C1` [NAVITOCLAX], the IC50 is > 2 µM.

In another assay the test system is NCI-H2030. Nature of the assay: cells. Format: functional, cell-based. The note with it: Homo sapiens.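 Also: growth inhibition of human NCI-H2030 cells, read out by a cell viability assay.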
Description: SANGER: Inhibition of human NCI-H2030 cell growth in a cell viability assay.
With `CC1(C)CCC(c2ccc(Cl)cc2)=C(CN2CCN(c3ccc(C(=O)NS(=O)(=O)c4ccc(N[C@H](CCN5CCOCC5)CSc5ccccc5)c(S(=O)(=O)C(F)(F)F)c4)cc3)CC2)C1` [NAVITOCLAX], the half-maximal inhibitory concentration (IC50) is > 2 µM.

As usually defined, the IC50 is the concentration needed to halve the response being measured. Read a low IC50 as higher potency.
